Calls of active or inactive are those of the source. No cut-off for these calls is given here.
Tests used:
[1] = target: T1, 5-hydroxytryptamine receptor 3A (Cavia porcellus, UniProt O70212); assay: Antagonist activity at 5-HT3 receptor in guinea-pig ileum assessed as inhibition of 5HT-induced contraction; assay type: tissue-based
T1 sequence (O70212 whole entry): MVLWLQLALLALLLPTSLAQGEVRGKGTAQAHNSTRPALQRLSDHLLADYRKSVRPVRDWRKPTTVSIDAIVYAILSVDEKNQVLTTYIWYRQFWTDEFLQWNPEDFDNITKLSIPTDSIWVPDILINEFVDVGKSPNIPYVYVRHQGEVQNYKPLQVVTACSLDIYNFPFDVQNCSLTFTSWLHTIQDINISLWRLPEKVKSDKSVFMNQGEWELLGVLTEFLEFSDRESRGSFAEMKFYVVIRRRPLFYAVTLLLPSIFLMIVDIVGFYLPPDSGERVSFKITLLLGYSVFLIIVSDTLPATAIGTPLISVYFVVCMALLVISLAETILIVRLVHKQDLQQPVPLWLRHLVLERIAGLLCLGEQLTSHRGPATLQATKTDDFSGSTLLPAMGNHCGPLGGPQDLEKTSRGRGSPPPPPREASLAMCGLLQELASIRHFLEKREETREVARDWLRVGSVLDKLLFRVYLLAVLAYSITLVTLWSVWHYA

[2] = target: D(2) dopamine receptor (Homo sapiens, UniProt P14416); assay: Displacement of [3H]-raclopride from human D2L receptor expressed in HEK293 cells measured after 1 hr by Microbeta plate reader method; assay type: cell-based
Sequence of D(2) dopamine receptor (P14416 whole entry): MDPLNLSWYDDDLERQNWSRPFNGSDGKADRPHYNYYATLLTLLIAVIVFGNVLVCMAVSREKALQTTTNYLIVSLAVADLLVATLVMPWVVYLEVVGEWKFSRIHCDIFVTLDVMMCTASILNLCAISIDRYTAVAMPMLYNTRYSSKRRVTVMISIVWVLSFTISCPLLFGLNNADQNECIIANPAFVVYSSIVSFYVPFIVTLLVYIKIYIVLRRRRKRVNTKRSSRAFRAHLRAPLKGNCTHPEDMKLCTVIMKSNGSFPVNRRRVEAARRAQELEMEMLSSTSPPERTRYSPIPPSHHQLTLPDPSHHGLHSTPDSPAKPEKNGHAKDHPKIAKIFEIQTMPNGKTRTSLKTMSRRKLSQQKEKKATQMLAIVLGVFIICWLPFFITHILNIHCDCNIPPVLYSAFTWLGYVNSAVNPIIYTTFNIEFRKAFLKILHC

[3] = Permeability of compound at pH 7.4 by PAMPA assay
[4] = Cytotoxicity against CHO-K1 cells measured after 24 hrs by MTT assay; assay type: toxicity, cell-based, Cricetulus griseus; conditions: Chinese hamster
[5] = target: 5-hydroxytryptamine receptor 2A (Homo sapiens, UniProt P28223); assay: Displacement of [3H]-ketanserin from human 5-HT2A receptor expressed in CHO-K1 cells measured after 1.5 hrs by Microbeta plate reader method; assay type: cell-based
Sequence of 5-hydroxytryptamine receptor 2A (P28223 whole entry): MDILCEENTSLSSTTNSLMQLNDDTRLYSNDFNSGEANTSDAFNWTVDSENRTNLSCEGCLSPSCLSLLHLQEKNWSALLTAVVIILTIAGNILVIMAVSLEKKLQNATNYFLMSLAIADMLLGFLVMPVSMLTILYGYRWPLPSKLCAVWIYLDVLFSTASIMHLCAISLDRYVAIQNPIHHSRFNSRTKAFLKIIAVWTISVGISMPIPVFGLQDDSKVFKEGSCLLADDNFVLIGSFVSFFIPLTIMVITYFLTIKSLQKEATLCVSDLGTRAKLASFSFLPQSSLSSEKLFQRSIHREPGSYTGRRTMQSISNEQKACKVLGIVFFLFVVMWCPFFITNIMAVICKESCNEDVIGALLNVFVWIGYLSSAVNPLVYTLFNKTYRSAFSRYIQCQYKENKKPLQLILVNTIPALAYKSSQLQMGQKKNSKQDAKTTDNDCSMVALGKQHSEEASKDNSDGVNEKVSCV

[6] = target: T2, 5-hydroxytryptamine receptor 3A (Homo sapiens) (UniProt P46098); assay: Competitive binding affinity towards 5-HT3 receptor (unknown origin); conditions: filed as antagonist
T2 sequence (whole entry): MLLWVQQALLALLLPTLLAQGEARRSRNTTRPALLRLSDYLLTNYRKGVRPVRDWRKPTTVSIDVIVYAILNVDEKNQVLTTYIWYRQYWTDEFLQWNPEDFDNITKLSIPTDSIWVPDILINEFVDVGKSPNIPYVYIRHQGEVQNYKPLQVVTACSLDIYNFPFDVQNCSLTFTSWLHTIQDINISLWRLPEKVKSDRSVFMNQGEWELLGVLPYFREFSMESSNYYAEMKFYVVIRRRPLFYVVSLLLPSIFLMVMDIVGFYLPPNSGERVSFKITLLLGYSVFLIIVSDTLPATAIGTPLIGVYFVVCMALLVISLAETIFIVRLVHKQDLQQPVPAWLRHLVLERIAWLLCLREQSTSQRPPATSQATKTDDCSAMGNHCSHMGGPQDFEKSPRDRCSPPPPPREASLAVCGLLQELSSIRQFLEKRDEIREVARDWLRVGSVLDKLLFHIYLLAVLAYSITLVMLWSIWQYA

[7] = target: T3, 5-hydroxytryptamine receptor 1A (Homo sapiens, UniProt P08908); assay: Displacement of [3H]-8-OH-DPAT from human 5-HT1A receptor expressed in HEK293 cells measured after 1 hr by Microbeta plate reader method; assay type: cell-based
T3 sequence (P08908 whole entry): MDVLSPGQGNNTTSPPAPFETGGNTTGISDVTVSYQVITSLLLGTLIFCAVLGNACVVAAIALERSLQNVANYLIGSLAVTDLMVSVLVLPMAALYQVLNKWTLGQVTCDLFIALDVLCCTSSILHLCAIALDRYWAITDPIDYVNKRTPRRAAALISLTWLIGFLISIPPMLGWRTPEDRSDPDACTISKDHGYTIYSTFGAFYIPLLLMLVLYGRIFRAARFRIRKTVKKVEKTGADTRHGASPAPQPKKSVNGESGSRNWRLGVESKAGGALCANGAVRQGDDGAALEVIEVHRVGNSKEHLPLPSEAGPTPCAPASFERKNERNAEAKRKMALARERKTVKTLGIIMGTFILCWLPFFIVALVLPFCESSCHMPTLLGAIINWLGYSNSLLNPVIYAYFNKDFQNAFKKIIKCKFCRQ

[8] = Half-life in male Wistar rat plasma at 20 mg/kg, ip; assay type: ADME, organism-based
[9] = Toxicity in male Wistar rat assessed as abnormalities in liver at 20 mg/kg, ip; assay type: organism-based; conditions: in vivo
[10] = Toxicity in male Wistar rat assessed as abnormalities (breathing changes, low activity and narrowed eyes) at 20 mg/kg, ip measured after 4 hrs; assay type: organism-based; conditions: in vivo
[11] = MRT in male Wistar rat plasma at 20 mg/kg, ip; assay type: ADME, organism-based
[12] = Cmax in male Wistar rat brain at 20 mg/kg, ip; assay type: ADME, organism-based; design: dose 20 mg/kg, route ip
[13] = Tmax in male Wistar rat plasma at 20 mg/kg, ip; assay type: ADME, organism-based
[14] = MRT in male Wistar rat brain at 20 mg/kg, ip; assay type: ADME, organism-based
[15] = target: 5-hydroxytryptamine receptor 7 (Homo sapiens, UniProt P34969); assay: Displacement of [3H]-5-CT from human 5-HT7b receptor expressed in HEK293 cells measured after 1 hr by Microbeta plate reader method; assay type: cell-based
Sequence of 5-hydroxytryptamine receptor 7 (P34969 whole entry): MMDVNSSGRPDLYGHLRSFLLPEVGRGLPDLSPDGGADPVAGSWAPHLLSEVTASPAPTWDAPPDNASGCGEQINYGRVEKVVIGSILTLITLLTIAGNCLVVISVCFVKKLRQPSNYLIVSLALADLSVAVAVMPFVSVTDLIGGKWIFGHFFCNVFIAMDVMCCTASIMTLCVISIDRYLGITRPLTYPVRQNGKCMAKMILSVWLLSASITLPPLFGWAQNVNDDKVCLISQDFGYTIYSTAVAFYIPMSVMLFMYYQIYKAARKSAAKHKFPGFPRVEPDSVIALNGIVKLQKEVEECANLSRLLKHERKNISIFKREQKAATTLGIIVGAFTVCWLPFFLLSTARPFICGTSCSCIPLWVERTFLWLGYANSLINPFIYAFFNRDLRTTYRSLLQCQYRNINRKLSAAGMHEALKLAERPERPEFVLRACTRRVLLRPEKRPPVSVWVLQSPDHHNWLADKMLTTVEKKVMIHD

[16] = AUC in male Wistar rat brain at 20 mg/kg, ip; assay type: ADME, organism-based; design: dose 20 mg/kg, route ip; conditions: in vivo
[17] = AUC in male Wistar rat plasma at 20 mg/kg, ip; assay type: ADME, organism-based; design: dose 20 mg/kg, route ip; conditions: in vivo
[18] = Toxicity in male Wistar rat assessed as abnormalities in kidney at 20 mg/kg, ip; assay type: organism-based; conditions: in vivo
[19] = Toxicity in male Wistar rat assessed as abnormalities (breathing changes, low activity, abdominal pain during manipulation, narrowed eyes and provoked vocalization) at 27.8 mg/kg, ip; assay type: organism-based; conditions: in vivo
[20] = Toxicity in male Wistar rat assessed as abnormalities (low activity and narrowed eyes) at 27.8 mg/kg, ip measured after 24 hrs; assay type: organism-based; conditions: in vivo
[21] = Cmax in male Wistar rat plasma at 20 mg/kg, ip; assay type: ADME, organism-based; design: dose 20 mg/kg, route ip
[22] = Toxicity in male Wistar rat assessed as abnormalities in blood plasma at 20 mg/kg, ip; assay type: organism-based; conditions: in vivo
[23] = Toxicity in male Wistar rat assessed as maximum tolerated dose administered intraperitoneally; conditions: in vivo, route ip
[24] = Half-life in male Wistar rat brain at 20 mg/kg, ip; assay type: ADME, organism-based
[25] = Tmax in male Wistar rat brain at 20 mg/kg, ip; assay type: ADME, organism-based
[26] = system: Rattus norvegicus; assay: Antipsychotic activity in male Wistar rat assessed as inhibition of amphetamine-stimulated locomotor activity at 1 mg/kg, ip; assay type: functional, organism-based
[27] = system: Rattus norvegicus; assay: Antipsychotic activity in male Wistar rat assessed as restoration of prepulse inhibition of acoustic startle response at 1 mg/kg, ip; assay type: functional, organism-based
[28] = Cytotoxicity against HEK293 cells measured after 24 hrs by MTT assay; assay type: toxicity, cell-based; conditions: human

Compound	IC50 [1]	Ki [2]	Papp [3]	IC50 at 24 h [4]	Ki [5]	also measured
CN1CCN(C2=Nc3cc(Cl)ccc3Nc3ccccc32)CC1 [CLOZAPINE]	110 µM					
N#Cc1cccnc1N1CCN(CCCCOc2ccc3c(c2)NC(=O)CC3)CC1		2.1 µM	12 ×10⁻⁶ cm/s	1000 µM	7.4 µM	
O=C1CCc2ccc(OCCCCN3CCN(C(=O)c4ccccn4)CC3)cc2N1	> 10 µM	0.009 µM	9.4 ×10⁻⁶ cm/s	89 µM	6.9 µM	
NS(=O)(=O)c1cc2c(cc1Cl)N=CNS2(=O)=O [CHLOROTHIAZIDE]			0.3 ×10⁻⁶ cm/s			
O=C(c1ccccn1)N1CCN(CCCN2CCN(c3cccc(Cl)c3Cl)CC2)CC1		0.082 µM	17 ×10⁻⁶ cm/s	290 µM	2.3 µM	pKb [6]: 5.3
Cn1nc(C(=O)N2CCN(CCN3CCN(c4cccc(Cl)c4Cl)CC3)CC2)c2ccccc21	1 µM	0.13 µM	6.8 ×10⁻⁶ cm/s	45 µM	1.8 µM	
COc1ccc(N2CCN(CCCN3CCN(C(=O)c4ccccc4)CC3)CC2)cc1	> 10 µM	5.5 µM	23 ×10⁻⁶ cm/s	> 400 µM	30 µM	
COc1ccccc1N1CCN(CCN2CCN(C(=O)c3nn(C)c4ccccc34)CC2)CC1	3 µM	0.63 µM	13 ×10⁻⁶ cm/s	780 µM	8.3 µM	
COc1ccccc1N1CCN(CCCN2CCN(c3ncccc3C#N)CC2)CC1			20 ×10⁻⁶ cm/s		23 µM	Ki [7]: 0.018 µM; half-life [8]: 48.8 min; Activity [9]: Non-Toxic; Activity [10]: Toxic; MRT [11]: 61.4 min; Cmax [12]: 3.52 µM; Tmax [13]: 5 min; MRT [14]: 57.8 min; Ki [15]: 2.7 µM; AUC [16]: 272930.4 nmol·min/L; AUC [17]: 91958.8 nmol·min/L; Activity [18]: Non-Toxic; Activity [19]: Toxic; Activity [20]: Toxic; Cmax [21]: 3.21 µM; Activity [22]: Non-Toxic; MTD [23]: 2.78 mg/kg; half-life [24]: 26.7 min; Tmax [25]: 5 min
O=C1CCc2ccc(OCCCCN3CCN(c4cccc(Cl)c4Cl)CC3)cc2N1 [ARIPIPRAZOLE]	630 µM					Activity [26]: Active; Activity [27]: Active; IC50 at 24 h [28]: > 100 µM
COc1ccccc1N1CCN(CCCNC(=O)c2cnccn2)CC1		0.86 µM	25 ×10⁻⁶ cm/s	> 500 µM	35.8 µM	
COc1ccccc1N1CCN(CCCN2CCN(C(=O)c3ccccc3)CC2)CC1		0.26 µM	11 ×10⁻⁶ cm/s	1300 µM	30 µM	
